Here are results for five compounds from PMC11125126, “Synthesis, Characterisation, and In Vitro Evaluation of Biocompatibility, Antibacterial and Antitumor Activity of Imidazolium Ionic Liquids” (Pharmaceutics, 2024).

The structures appear in SMILES notation. Like-named read-outs stand apart in the source and are kept apart here. Bounds are passed on as bounds.

One data set has as its system MCF7 cancer cells. The data set is described as follows: Direct cytotoxicity test of IL powders, Alamar blue assay. It counts as cell-based, human. Particulars: 24 h of incubation. The procedure:
(§1) Cytotoxicity studies on IL powders were carried out using human dermal fibroblast (HDF) cells (Sigma-Aldrich) and a human breast cancer cell line (MCF7). In addition, ILs loaded in PVC polymer substrates were tested for their cytocompatibility and adhesion properties on the HDF. HDF cells were cultured in 75 cm^2 cell culture flask in Dulbecco’s Modified Eagle’s Medium (DMEM) supplemented with 20% Foetal Bovine Serum (FBS), 1% non-essential amino acid (NEAA), antibiotic solution (streptomycin 100 µg/mL and penicillin 100 U/mL, Sigma Aldrich) and 2 mM L-glutamine. MCF7 cells were grown in DMEM with 10% FBS and the same antibiotics as mentioned above. The cells were maintained in a culture at 37 °C, with 5% CO2 and 95% humidity to achieve a confluent layer. Control cells were cultured in a complete medium without any compounds in tissue culture plates. Before biological testing, the samples were sterilised using a UV light for 2 h.
(§2) A direct cytotoxicity test was used to assess the in vitro cytotoxicity of IL powders. IL powders with different alkyl chains were dissolved in DMEM media to obtain solutions at various concentrations (0.5–1–5 and 10 µg/mL) to determine the best formulation.
(§3) After 24 h of incubation of IL solutions (200 µL) with seeded cells under specific environmental conditions (T = 37 °C, HR = 95%, CO2 = 5%), cell viability was tested using the Alamar blue assay (AbD Serotec, Milan, Italy) following the manufacturer’s instructions.
(§4) In summary, each well received a 200 µL aliquot of Alamar Blue^TM diluted 1:10 in phenol red-free medium and was incubated for 4 h at 37 °C, 5% CO2. Following this, 100 µL of the solution was transferred to a 96-well plate for colorimetric analysis. Wells with no cells were included to account for any background interference from the redox indicator. Optical density was immediately measured using a spectrophotometer (Victor X3, Perkin Elmer, Waltham, MA, USA) at 560 and 595 nm wavelengths. The results were presented as a percentage of cell viability compared to that of the control (cells grown on tissue culture plates).
(§5) Here, the antitumor activity and cytotoxicity of the synthetised imidazolium-based ionic liquids have been determined for breast cancer cells (MCF-7) and healthy human fibroblast (HDF) cells. […] Table 5 reports the IC50 values in µg/mL and µM to make their comparison with the literature data easy.

For a further data set, the system named is HDF cells. The data set is described as above. In kind it is cell-based, human. Particulars: 24 h of incubation. As to the method:
as §1, §2, §3, §4, §5

Data set [1] is described as follows: Thermogravimetric analysis (TGA), thermal stability. Particulars: neat ILs; single-step degradation; 10 °C/min, nitrogen. It counts as physicochemical. The procedure:
Thermal stability and kinetic parameters of the synthesised ILs were investigated using the TA instruments Q500 thermogravimetric analyser (Milan, Italy). A certain amount of sample (4–5 mg) was placed in a platinum pan and heated at 10 °C min^−1 from 40 to 600 °C under a flow of nitrogen (60 mL/min).
Thermogravimetric analyses were performed to evaluate the thermal stability of ILs and PVC/IL blends. Before testing, the samples were subjected to drying cycles in a vacuum stove for 24 h at 50–60 °C, according to the thermal features of ILs, mainly considering their melting points. The ILs C9mimBF4, C10mimBF4, C9mimDMSIP, and C10mimDMSIP, which are liquid at RT, were left to dry at 30 °C for 4–5 h. […] Considering this, the 40–600 °C degradation temperature range was adopted for the subsequent TGA analyses. […] Furthermore, platinum pans and nitrogen as purge gas were used, and the temperature at which 5% weight loss occurred was defined as Tonset, aiming to avoid the decomposition differences due to pan and gas types, as well as the uncertainty from the manual determination of the Tonset tangent point, respectively. Many features can influence the thermal stability of ILs, mainly the coordinating nature of the anion. Indeed, the highly coordinating halide anions (Cl, Br) display a thermal stability lower than that of poor coordinating anions (PF6). The type of cation core influences the thermal stability of ILs, with a decreasing temperature resistance in the following order: pyrrolidinium, imidazolium, pyridinium, and non-cyclic tetra-alkyl ammonium. The increasing alkyl chain length of the imidazolium cation and branching of the alkyl substituents induce a reduction in thermal stability. Furthermore, a decrease in thermal stability is determined by the presence of alkoxylated side chains in methylimidazolium, piperidinium, and pyrrolidinium cations.
As the industrial production of end products usually involves processing methodologies during which undesirable degradation processes could affect materials’ performance, the thermal stability of neat PVC and PVC/IL film blends was analysed. As detailed for TGA analyses of pure ILs, the stability of the PVC/IL blends was determined at heating runs of 10 °C/min from 40 to 600 °C under a nitrogen atmosphere using a platinum pan. These things considered, the temperature at 5% weight loss was considered as Tonset.

A further data set has as its system Escherichia coli. The data set is described as follows: MIC/MBC by broth dilution, pure ILs. It counts as cell-based. Particulars: 24 h. From the text: (§6) Within the Di3A (Dipartimento di Agricoltura, Alimentazione e Ambiente, University of Catania, Italy) microbial collection, two Gram-negative strains (Escherichia coli and Pseudomonas fluorescens) and one Gram-positive strain (Listeria monocytogenes) were studied in order to define the potential efficacy of ionic liquids in relation to the different structure of the bacterial cell wall.
(§7) For the pure ILs, the minimal inhibitory concentration (MIC) and minimal bactericidal concentration (MBC) were determined in Nutrient Broth (NB, Oxoid, Basingstoke, UK) medium by broth dilution method, according to the Clinical and Laboratory Standards Institute (CLSI).
(§8) All the bacterial strains were individually grown for 24 h at 35 or 27 °C for P. fluorescens, with shaking. After the incubation period, the cells were collected by centrifugation and re-suspended in sterile NB to obtain a stock culture of 10^9 CFU/mL.
(§9) Tubes containing 5 mL of NB with decreasing concentrations of ILs (1000, 500, 250, 125, 50, 25, 12.5, 5 and 0 µg/mL) were inoculated with each bacterial stock culture at a final concentration of 10^6 CFU/mL.
(§10) Tubes were incubated at 35 or 27 °C in an orbital shaker and evaluated for the viable count of E. coli, P. fluorescens, and L. monocytogenes after 24 h by spread-plating 100 µL of each suspension on Nutrient Agar (NA, Oxoid, Basingstoke, UK) incubated for 24–48 h at 35 or 27 °C.
(§11) In this study, MIC and MBC are expressed in both µg/mL and µM to make the comparison with the literature data easy. Each experiment was performed in triplicate.

The test system of the next data set is Listeria monocytogenes. In words: MIC/MBC by broth dilution, pure ILs. In kind it is cell-based. Particulars: 24 h.
Source text: as §6, §7, §8, §9, §10, §11

Another data set concerns Pseudomonas fluorescens. The data set is described as follows: MIC/MBC by broth dilution, pure ILs. It counts as cell-based. Particulars: 24 h.
Source text: as §6, §7
All the bacterial strains were individually grown for 24 h at 35 or 27 °C for P. fluorescens, with shaking. After the incubation period, the cells were collected by centrifugation and re-suspended in sterile NB to obtain a stock culture of 10^9 CFU/mL. […]
as §10, §11

Setting [2] is: NI = no inhibition at IL maximum concentration used (1000 µM), read-out: MIC.
Where [3] appears, read: NI = no inhibition at IL maximum concentration used (1000 µM), read-out: MBC.

As to `CCCCCCCCC[n+]1ccn(C)c1.COC(=O)c1cc(C(=O)OC)cc(S(=O)(=O)[O-])c1` [C9mimDMSIP], the “IC50 MCF7” value with MCF7 cancer cells (n = 3) was greater than 24.13 µg/mL. For the same compound, the IC50 is greater than 50 µM in the data set with MCF7 cancer cells (n = 3, mean ± SD) and 10.3 µM in the data set on HDF cells (n = 3). Also, in the data set on HDF cells (n = 3, mean ± SD), the “IC50 HDF” value is on record as 4.96 ± 0.05 µg/mL. Moreover, the “Td, maximum degradation temperature” value in data set [1] was 389.7 °C. For the same compound, the values for the MIC with Escherichia coli (10^6 CFU/mL) and in the data set on Escherichia coli (setting [2]) were 482.59 µg/mL and 1000 µM, respectively.

Regarding `CCCCCCCCCCCCCCCCCCCCn1cc[n+](C)c1.COC(=O)c1cc(C(=O)OC)cc(S(=O)(=O)[O-])c1` [C20mimDMSIP, 1-eicosyl-3-methylimidazolium 1,3-dimethyl-5-sulfoisophthalate], the “IC50 MCF7” value in the data set on MCF7 cancer cells (n = 3) is 4.71 µg/mL. In addition, the IC50 with MCF7 cancer cells (n = 3, mean ± SD) is 7.39 µM; with HDF cells (n = 3), 8.01 µM. In the data set on HDF cells (n = 3, mean ± SD), the “IC50 HDF” value was found to be 5.10 ± 0.02 µg/mL. In addition, the “Td, maximum degradation temperature” value in data set [1] was determined as 412.2 °C. Besides, the minimal inhibitory concentration (MIC) in the data set with Listeria monocytogenes (10^6 CFU/mL) and against Escherichia coli (10^6 CFU/mL) was greater than 636.88 µg/mL each time.

As for `CCCCCCCCCCCCCCCCCCCC[n+]1ccn(C)c1.F[B-](F)(F)F` [C20mimBF4], the IC50 is 3.47 µg/mL with MCF7 cancer cells (Homo sapiens, n = 3); 7.71 µM in the data set on MCF7 cancer cells (Homo sapiens, n = 3, mean ± SD); 5.99 µM in the data set with HDF cells (Homo sapiens, n = 3); 2.7 ± 0.19 µg/mL in the data set with HDF cells (Homo sapiens, n = 3, mean ± SD). For the same compound, the MIC in the data set on Pseudomonas fluorescens (setting [2]) was greater than 1000 µM; with Listeria monocytogenes (10^6 CFU/mL, read-out: MIC), greater than 450 µg/mL; in the data set on Listeria monocytogenes (setting [2]), greater than 1000 µM; in the data set with Escherichia coli (10^6 CFU/mL, read-out: MIC), greater than 450 µg/mL; with Escherichia coli (setting [2]), greater than 1000 µM. Also, in data set [1], the “Td, maximum degradation temperature” value is 427.9 °C.

In the case of `CCCCCCCCCCCCCCCC[n+]1ccn(C)c1.COC(=O)c1cc(C(=O)OC)cc(S(=O)(=O)[O-])c1` [C16mimDMSIP], in the data set with MCF7 cancer cells (n = 3), the “IC50 MCF7” value stood at 3.84 µg/mL. For the same compound, the IC50 was 6.61 µM in the data set with MCF7 cancer cells (n = 3, mean ± SD) and 9.57 µM in the data set on HDF cells (n = 3). In addition, in the data set on HDF cells (n = 3, mean ± SD), the “IC50 HDF” value is listed as 5.56 ± 0.04 µg/mL. Besides, the minimum bactericidal concentration (MBC) against Pseudomonas fluorescens (10^6 CFU/mL) is 145.19 µg/mL; with Pseudomonas fluorescens (setting [3]) it was 250 µM; with Listeria monocytogenes (10^6 CFU/mL), 72.60 µg/mL; in the data set with Listeria monocytogenes (setting [3]), 125 µM; in the data set on Escherichia coli (10^6 CFU/mL), 72.60 µg/mL; in the data set with Escherichia coli (setting [3]) it was 125 µM. Also, the MIC in the data set on Pseudomonas fluorescens (10^6 CFU/mL) is reported as 145.19 µg/mL; in the data set on Pseudomonas fluorescens (setting [2]), 250 µM; in the data set with Listeria monocytogenes (10^6 CFU/mL), 29.04 µg/mL; with Listeria monocytogenes (setting [2]), 50 µM; in the data set with Escherichia coli (10^6 CFU/mL), 72.60 µg/mL; in the data set with Escherichia coli (setting [2]), 125 µM.

For the compound `CCCCCCCCC[n+]1ccn(C)c1.F[B-](F)(F)F` [C9mimBF4], the IC50 in the data set on MCF7 cancer cells (Homo sapiens, n = 3) was greater than 14.8 µg/mL; in the data set with MCF7 cancer cells (Homo sapiens, n = 3, mean ± SD), greater than 50 µM; with HDF cells (Homo sapiens, n = 3), 17.4 µM; with HDF cells (Homo sapiens, n = 3, mean ± SD), 5.14 ± 0.1 µg/mL. For the same compound, the minimum inhibitory concentration (MIC) in the data set with Pseudomonas fluorescens (setting [2]) is greater than 1000 µM; with Listeria monocytogenes (10^6 CFU/mL, read-out: MIC), 148 µg/mL; in the data set on Listeria monocytogenes (setting [2]) it was 500 µM; in the data set with Escherichia coli (10^6 CFU/mL, read-out: MIC), 296 µg/mL; in the data set on Escherichia coli (setting [2]), 1000 µM. In addition, the MBC came to 148 µg/mL in the data set with Listeria monocytogenes (10^6 CFU/mL, read-out: MBC); 500 µM in the data set with Listeria monocytogenes (setting [3]); 296 µg/mL with Escherichia coli (10^6 CFU/mL, read-out: MBC); 1000 µM with Escherichia coli (setting [3]).
